# How the values were obtained:
# [1] = tested on: PSMA-expressing LNCaP cells; assay: Internalization studies / cell binding in LNCaP cells; format: cell-based, human; conditions: 68Ga compounds, c = 0.2 nM, 37°C, 1 h, 125,000 cells/well, corrected for unspecific binding
# Procedure: Cell culture: PSMA^+ LNCaP cells (CLS: 300265) were grown in DMEM/Nutrition Mix F-12 with Glutamax-I (1:1) (Invitrogen, Life Technologies, Darmstadt, Germany) supplemented with 10% FCS. Cultures were maintained at 37°C in a 5% CO2/humidified air atmosphere. One day prior to the experiment, cells were harvested using Trypsin/EDTA (0.05% and 0.02%) in PBS, centrifuged and resuspended with culture medium. For cell counting, a Countesse automated cell counter (Invitrogen, Carlsbad, USA) was used. All in vitro binding and internalization studies were performed using live cells seeded 1 day prior to the experiment. For IC50 determination, 150,000 cells/mL were transferred to 24-well plates (1 mL/well), and for internalization studies, 125,000 cells/mL were transferred into PLL-coated 24-well plates.
# Internalization studies: The culture medium was removed, and the cells were washed once with 500 μL DMEM-F12 (5% BSA) before being left to equilibrate in 200 μL DMEM-F12 (5% BSA) at 37°C for a minimum of 15 min. Then, 25 μL (per well) of either DMEM-F12 (5% BSA) or of a 100-μM PMPA solution (blocking) was added, followed by the addition of 25 μL of ^68Ga/^177Lu-labelled PSMA ligand. The final radioligand concentration was 0.2/0.5 nM in all internalization assays. To determine internalization kinetics, cells were then incubated at 37°C for 5, 15, 30 and 60 min, respectively. Experiments were carried out in triplicate for each time point (control and blocking). Incubation was terminated by placing the plate on ice for approximately 1 min and by subsequent removal of the incubation medium. Cells were thoroughly rinsed with 250 μL of PBS. The wash medium was combined with the supernatant of the previous step. This fraction represents the amount of free radioligand. To remove receptor surface bound radioactivity, the cells were then incubated for 10 min with 250 μL of ice cold PMPA solution (10 μM in PBS). After removal of the supernatant, the cells were thoroughly rinsed with another 250 μL of ice cold PBS. Both fractions were combined. The internalized activity was released by incubation with 250 μL of 1 N NaOH, transferred to vials and combined with 250 μL of 1 N NaOH used for rinsing the wells. Quantification of the amount of free, PMPA-releasable and internalized activity was performed in a γ-counter.
# The cellular uptake and internalization kinetics of the different ^68Ga- and ^177Lu-labelled PSMA ligands was determined using PSMA-expressing LNCaP cells. In the case of the ^68Ga-labelled compounds, the final peptide concentration in the assays was 0.2 nM. […] All internalization studies were accompanied by reference studies using ([^125I]I-BA)KuE (c = 0.2 nM). This experimental setup allows data normalization and eliminates the influence of cell count and cell viability on absolute cellular tracer uptake. […] Furthermore, to be able to discriminate between total cellular activity (sum of membrane associated and internalized activity) and internalized activity, all incubations were followed by a washing step with 10 μM PMPA at 4°C to remove specifically cell-surface bound radioligand by displacement.
# [2] = Determination of lipophilicity (shake flask, n-octanol/PBS); format: physicochemical; conditions: n-octanol/PBS; listed for 11/12 but determined for the FFK analogue 11 only (footnote a)
# Procedure: To a solution of 0.5 to 1 MBq of radiolabelled peptide in 500 μl of phosphate-buffered saline (PBS, pH 7.4), 500 μl of n-octanol was added (n = 6). Vials were vortexed vigorously for 3 min. To achieve quantitative phase separation, the vials were centrifuged at 6,000 g for 5 min in a Biofuge 15 (Heraeus Sepatech, Osterode, Germany). The activity concentrations in 100 μl-samples of both the aqueous and the organic phase were measured in a γ-counter. Both the partition coefficient P(o/w), which is defined as the molar concentration ratio of a single species A between n-octanol and water at equilibrium, and logP(o/w), which is an important parameter used to characterize lipophilicity of a compound, were calculated.
# The partition coefficient logP between n-octanol and PBS was determined for the compounds listed in Table 3 using the shake flask method. All compounds are highly hydrophilic, with the DOTAGA compounds being up to one order of magnitude more hydrophilic than the corresponding DOTA analogues. Amongst all compounds tested, [^68Ga]HBED-CC-Ahx-KuE was the most hydrophilic compound.
# [3] = In vivo metabolite analysis by radio-HPLC; conditions: CD-1 nu/nu mice, 0.5 h p.i.
# Procedure: ^177Lu-10 and ^177Lu-11 were incubated in 80 μL of human serum (37°C) and 80 μL 0.4 M DTPA solution (RT), respectively and after 1, 24 and 48 h, the stability was determined by TLC analysis. The ^68Ga-labelled tracers (40 to 45 MBq) were injected into the tail vein of CD-1 nu/nu mice. The animals were sacrificed after 30 min, and urine, blood and kidney samples were taken. The kidney was frozen in liquid nitrogen, homogenized with a ball mill and extracted with 0.2 to 1 mL PBS containing 200 nmol 2-(phosphonomethyl)pentane-1,5-dioic acid (PMPA). The suspension was first centrifuged (15,000 g), and after ultrafiltration, the extracts were analysed by RP-HPLC. The blood samples were centrifuged to separate the plasma from the blood cells. Plasma proteins were removed by precipitation with acetonitrile (10 min, 4°C) and subsequent centrifugation and ultrafiltration. The blood extract was also analysed by RP-HPLC.
# To investigate the influence of the amino acid composition of the spacer (KFF vs kff) on the metabolic stability in vivo, tissue homogenates and body fluids of mice injected with ^68Ga-11 and ^68Ga-12 were analysed by radio-HPLC. Extraction efficiencies from the blood and from the kidney were 56% and 43% for ^68Ga-11 and 61% and 62% for ^68Ga-12, respectively.
# LNCaP tumour xenograft = assay: Biodistribution in LNCaP-tumour-bearing mice; format: in vivo; conditions: LNCaP-tumour bearing CD-1 nu/nu mice, 1 h p.i.
# Procedure: All animal experiments were conducted in accordance with general animal welfare regulations in Germany (Deutsches Tierschutzgesetz, approval #55.2-1-54-2532-71-13). The prostate cancer cell line LNCaP was suspended 1/1 in serum-free medium and Matrigel (BD Biosciences, Germany) and approximately 10^7 cells in 200 μL were inoculated subcutaneously on the right shoulder of 6 to 8 weeks old CD-1 nu/nu mice (Charles River Laboratories). Tumours were grown for 2 to 4 weeks (males) and 4 to 6 weeks (females) to reach 4 to 8 mm in diameter.
# Biodistribution: The ^68Ga-labelled PSMA ligands (approximately 7 to 15 MBq, 0.1 to 0.2 nmol) were injected into the tail vein of isoflurane anesthetized animals. The organ distribution was examined 1 h p.i. and quantified in a γ-counter.
# A comparison of the biodistribution of compounds ^68Ga-11, ^68Ga-12 and the reference [^68Ga]HBED-CC-Ahx-KuE in LNCaP-tumour-bearing CD-1 nu/nu mice (1 h p.i.) is shown in Figure 7.
substance,measurement,setting,value
[^68Ga]DOTAGA-ffk(Sub-KuE) [^68Ga-12],Internalization (1 h) in % of ([125I]I-BA)KuE,[1],42.5 ± 1.7%
same,log P (o/w),[2],−3.6 ± 0.1
same,Intact tracer in blood,[3],100%
same,Kidney accumulation,LNCaP tumour xenograft,96 ± 45 % ID/g
same,Tracer uptake into liver,LNCaP tumour xenograft,0.2 ± 0.04 % ID/g
same,Tracer uptake into lung,LNCaP tumour xenograft,1.1 ± 0.3 % ID/g
same,Tracer uptake into pancreas,LNCaP tumour xenograft,0.4 ± 0.1 % ID/g
same,Tracer uptake into spleen,LNCaP tumour xenograft,5.5 ± 0.2 % ID/g
same,Tumour-to-blood ratio,LNCaP tumour xenograft,17.0 ± 0.5
same,Tumour-to-skeletal muscle ratio,LNCaP tumour xenograft,19.8 ± 0.7
same,Uptake in gastrointestinal tract,LNCaP tumour xenograft,< 0.5 % ID/g
same,Uptake into LNCaP tumour xenograft,LNCaP tumour xenograft,5.2 ± 1.2 % ID/g

# Source: paper PMC4452638, “Synthesis and preclinical evaluation of DOTAGA-conjugated PSMA ligands for functional imaging and endoradiotherapy of prostate cancer” (EJNMMI Research, 2014)
